Assay results as given in patent publication US12061143B2, “Methods for rapid determinations of antibiotic susceptibility phenotypes” (priority 2018, dated 2024).

How the values were obtained:
Format in all cases: cell-based
A. nosocomialis M2 = assay: MIC by broth microdilution AST
Description: (§1) Varied counts of bacteria were mixed with human blood and diluted 1:9 (v/v) with bacterial growth medium to desired bacterial concentrations (<10 CFU/mL final solution) and plated to independently confirm CFU/mL blood. Saponin was immediately added and the samples shaken for 15 minutes to achieve selective blood cell lysis. After hemolysis, bacteria were spun down and washed with PBS. The pellets were resuspended in bacterial growth medium and incubated at 37° C. for 2 hours, followed by another 3-hour incubation with antibiotics at various fractions of the minimum inhibition concentration (MIC, as independently determined by microdilution from the pure starting culture, Table 1) for sensitive strains or at the CLSI MIC resistant breakpoints^(12) for the highly resistant strains. Changes in scattered light signals largely resulting from bacterial growth inhibition were monitored by flow cytometry, and the difference in the 2-D scatter histograms with and without antibiotic treatment was quantified with PB-sQF statistics.^(1) Using PB-sQF, distance was calculated for each antibiotic concentration relative to its own no-antibiotic control and expressed as “fold distance” relative to the 99% confidence limit distance between the no-antibiotic control and the sensitive breakpoint. This allowed comparison of fold distances among all samples as each is individually paired to its own control, as is each replicate.
(§2) All clinical isolates (E. coli strains Mu14S and Mu890, K. pneumoniae strains Mu670 and Mu55, A. nosocomialis strains M2) were obtained from the Georgia Emerging Infection Program (GEIP). The MIC of each isolate was determined by a clinical microbiology laboratory using post blood culture automated AST and confirmed using broth microdilution in our laboratory. The MICs of each strain were measured to be as follows. For A. nosocomialis strain M2, 1 μg/mL tetracycline, 2 μg/mL gentamicin, and >1024 μg/mL ampicillin. For E. coli strain Mu890, 1 μg/mL tetracycline, 8 μg/mL gentamicin, and >1024 μg/mL ampicillin. For E. coli strain Mu14S, >64 μg/mL tetracycline, 8 μg/mL gentamicin, and >1024 μg/mL ampicillin. For K. pneumoniae strain Mu55, >64 μg/mL tetracycline, 1 μg/mL gentamicin, and >1024 μg/mL ampicillin. For K. pneumoniae strain Mu670, 2 μg/mL tetracycline, 4 μg/mL gentamicin, and >1024 μg/mL ampicillin.

E. coli Mu14S = assay: MIC by broth microdilution AST
Description: as §1, §2

E. coli Mu890 = assay: MIC by broth microdilution AST; settings: E. coli Mu890
Description: as §1, §2

K. pneumoniae Mu55 = assay: MIC by broth microdilution AST
Description: as §1, §2

K. pneumoniae Mu670 = assay: MIC by broth microdilution AST
Description: as §1, §2

E. coli strain Mu14S = assay: FAST flow cytometry AST with PB-sQF, bacteria recovered from 10% human blood
Description: as §1
(§3) To simulate a blood specimen from a patient with bacteremia, the isolates were grown, diluted to the desired CFU/mL in blood (ZenBio, Research Triangle Park, NC) and saponin was added to achieve the final diluted sample. Initial bacterial cultures were prepared using Luria-Bertani (LB) broth for (E. coli) or cation-adjusted Mueller-Hinton broth (CAMHB). The fresh bacterial cultures started from ˜0.05 optical density (OD) by inoculating a 6-mL fresh growth medium with overnight culture were grown in an incubator shaker (MaxQ 4000, Thermal Fisher Scientific, Waltham, MA) at 37° C. and 225 rpm. After the culture reached mid-log phase, bacteria were collected and diluted into ˜10 CFU/mL through serial 10-fold dilutions. Bacterial densities were determined by plating onto LB plates. The final 10-fold dilution was performed by adding 500 μL of 100 CFU/mL into 4500 μL of 10% human blood in medium.
(§4) A 2.5% (w/v) of saponin solution was prepared, sonicated (Branson 2510, Emerson, St. Louis, MO) for 20 minutes and spun down with a clinical centrifuge (Centrific Model 228, Fisher Scientific, Waltham, MA) for 4 minutes. The supernatant cleared of particulates was collected. 500 μL of 2.5% saponin was then added to the 5 mL of 10% human blood sample with ˜10 CFU/mL, described above and the mixtures were shaken at 300 rpm for 15 minutes at 37° C. After the saponin treatment, the bacteria were pelleted and washed with 2 mL of phosphate buffered saline (PBS) (Life Technologies, Carlsbad, CA) using a clinical centrifuge for 2 minutes. Bacterial growth medium (2.5 mL) was then added to the tube and incubated for 2 hours at 37° C. and 225 rpm.
(§5) After the 2-hour incubation, 500-μL aliquots of the suspension were added to each of 4 wells in a 12-well microtiter plate that contained 500 μL of growth medium with or without antibiotic at 2-fold of specified concentrations. The plate was then incubated at 37° C. for 3 hours. Bacteria were collected by centrifugation (Centrifuge 5417R, Eppendorf) and resuspended in 200 μL of PBS for flow cytometry detection. To ensure each clinical isolate was tested at its MIC values of the tested antibiotics, the initial bacterial cultures at the 1000 CFU/mL dilution were also tested for each experiment (FIGS. 4A-4F, 5A-5F, 7A-7F, 8A-8F, and 9A-9F), confirming that the antibiotic concentrations indeed inhibited bacterial growth.
(§6) Cytometric data were collected by BD LSRFortessa flow cytometer (Becton Dickinson, Franklin Lake, NY) equipped with a 100 mW, 488 nm laser for the scatter signal. […]

E. coli strain Mu890 = assay: as above
Description: as §1, §3, §4, §5, §6

[1] = system: K. pneumoniae strain Mu55; assay: as above; settings: ~8 CFU/mL after 10-fold dilution
Description: as §1, §3, §4, §5, §6

[2] = system: K. pneumoniae strain Mu670; assay: as above; settings: ~9 CFU/mL after 10-fold dilution
Description: as §1, §3, §4, §5, §6

[3] = system: A. nosocomialis strain M2; assay: as above; settings: M2 spiked in 10% human blood, assayed within 8 hrs of simulated blood draw
Description: Varied counts of bacteria were mixed with human blood and diluted 1:9 (v/v) with bacterial growth medium to desired bacterial concentrations (<10 CFU/mL final solution) and plated to independently confirm CFU/mL blood. Saponin was immediately added and the samples shaken for 15 minutes to achieve selective blood cell lysis. After hemolysis, bacteria were spun down and washed with PBS. […] This allowed comparison of fold distances among all samples as each is individually paired to its own control, as is each replicate.
To simulate a blood specimen from a patient with bacteremia, the isolates were grown, diluted to the desired CFU/mL in blood (ZenBio, Research Triangle Park, NC) and saponin was added to achieve the final diluted sample. Initial bacterial cultures were prepared using Luria-Bertani (LB) broth for (E. coli) or cation-adjusted Mueller-Hinton broth (CAMHB). The fresh bacterial cultures started from ˜0.05 optical density (OD) by inoculating a 6-mL fresh growth medium with overnight culture were grown in an incubator shaker (MaxQ 4000, Thermal Fisher Scientific, Waltham, MA) at 37° C. and 225 rpm. […] Bacterial densities were determined by plating onto LB plates. […]
Cytometric data were collected by BD LSRFortessa flow cytometer (Becton Dickinson, Franklin Lake, NY) equipped with a 100 mW, 488 nm laser for the scatter signal. […] Data were recorded with FACSDiVa provided by BD. […]

[4] = class according to 2016 CLSI handbook
[5] = microdilution from pure culture

## Gentamicin
A. nosocomialis M2; [4]
  MIC (S/I/R): (S)
A. nosocomialis M2; [5]
  MIC: 2 µg/mL
E. coli Mu14S; [4]
  MIC (S/I/R): (I)
E. coli Mu14S; [5]
  MIC: 8 µg/mL
E. coli Mu890; [4]
  MIC (S/I/R): (I)
E. coli Mu890; [5]
  MIC: 8 µg/mL
K. pneumoniae Mu55; [4]
  MIC (S/I/R): (S)
K. pneumoniae Mu55; [5]
  MIC: 1 µg/mL
K. pneumoniae Mu670; [4]
  MIC (S/I/R): (S)
K. pneumoniae Mu670; [5]
  MIC: 4 µg/mL
E. coli strain Mu14S; Mu14S treated at the MIC
  FAST antibiotic-induced scatter signal change: exhibits growth inhibition
E. coli strain Mu14S; Mu14S, 1×MIC, triplicate data
  PB-sQF fold distance average versus the paired-control: clear differences
E. coli strain Mu890; Mu890, beyond the 99% confidence level
  PB-sQF fold distance-based FAST result: effective
E. coli strain Mu890; Mu890 treated at the MIC, 3-hr incubation, vs paired no-antibiotic control
  FAST antibiotic-induced scatter signal change: effective growth inhibition
[1]
  PB-sQF FAST result: appropriate
[2]
  PB-sQF FAST result: appropriate
[3]
  PB-sQF FAST susceptibility: susceptible
